Consider 12 molecules from PubChem BioAssay (NCI).

Molecules are shown by their SMILES. “And” between values parts separate entries of the source, which are not always exact repeats. Equal entries are not always repeated.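 Cells were grown in 96-well plates and exposed to each compound for 48 hours at five concentrations; endpoints were interpolated linearly between bracketing concentrations, or set to the highest concentration if not reached. GI50 = concentration required for 50% inhibition of growth. TGI marks complete inhibition of growth.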

Holding throughout (experiment): NCI tumour cell line growth inhibition, 48 h
The test system of assay [1] is DU-145 prostate.
Assay [2] deals with BT-549 breast.
Assay [3] relates to SK-OV-3 ovarian.
The test system of assay [4] is NCI-H226 lung.
In assay [5] the test system is SF-539 CNS.
Assay [6] concerns SK-MEL-2 melanoma.
The subject of assay [7] is PC-3 prostate.
Assay [8] deals with OVCAR-5 ovarian.
Assay [9] has as its system UO-31 renal.
For assay [10], the system named is SNB-19 CNS.

As for `CN1CCCCC1CCN1c2ccccc2Sc2ccc(Br)cc21` (centres undefined), the GI50 is 3700 nM in [1]; 4170 nM in [2]; 3440 nM in assay [3]; 11.8 µM in assay [4]; 2020 nM in assay [5]; 2500 nM in assay [6]. Moreover, the GI50 is 2810 nM in assay [7], 2450 nM in [8], 2680 nM in [9] and 2920 nM in [10]. Moreover, the TGI came to 12.6 µM in [1]; 17.7 µM in assay [2]; 12.3 µM in assay [3]; 28.8 µM in [4]; 4.01 µM in [5]; 5.94 µM in assay [6]. Also, the TGI in assay [7] was 8.76 µM; in assay [8] it was 7.65 µM; in assay [9], 10.8 µM; in [10], 12.4 µM.

For `CC[C@H](C)[C@H](NC(=O)[C@H]1CCCCN1C)C(=O)N(C)[C@H](CCc1nc(C(=O)N[C@@H](Cc2ccccc2)C[C@H](C)C(=O)O)cs1)C(C)C`, the GI50 is 389 nM in assay [1]; 126 nM in [2]; 585 nM in assay [3]; 8.83 µM in assay [4]; 88.8 nM in [5]; 78.9 nM in assay [6]. Also, the GI50 in assay [7] is 367 nM; in assay [8], 1820 nM; in assay [9] it was above 14100 nM; in assay [10], 197 nM. The TGI in assay [1] is above 25 µM; in [2] it was 6.94 µM; in assay [3], above 25 µM; in assay [4], above 25 µM; in [5], 1.14 µM; in assay [6] it was above 25 µM. Also, the TGI in assay [7], in assay [8], in assay [9] and in assay [10] was above 25 µM throughout.

Regarding `Nc1ccc(CC[C@H]2CCC/C=C/[C@@H]3C[C@H](O)C[C@H]3[C@H](O)/C=C/C(=O)O2)cc1`, the GI50 in assay [1] is 107 nM; in [2], 38.1 nM; in assay [3], 48.3 nM; in assay [4], 0.0226 µM; in [5], 56.2 nM; in [6] it was 38.1 nM. The GI50 is 49.4 nM in assay [7], 48.1 nM in assay [8], 27.6 nM in assay [9] and 50.4 nM in assay [10]. Besides, the TGI is above 100 µM in [1]; 16.1 µM in [2]; above 100 µM in [3]; 0.0704 µM in [4]; above 100 µM in assay [5]; 0.18 µM in assay [6]. Further, the TGI in assay [7] was above 100 µM; in assay [8], above 78.1 µM; in assay [9], 2.34 µM; in assay [10] it was above 100 µM.

`COc1cc2c(c(OC)c1OC)-c1cc(I)c(O)cc1[C@@H](NC(C)=O)CC2`: the GI50 in assay [1] was 39.8 nM; in assay [2], 134 nM; in assay [3], 47.6 nM; in [4], 0.299 µM; in [5] it was 31.4 nM; in assay [6], 23100 nM. Further, the GI50 was 39.5 nM in [7], 237 nM in assay [8], 556 nM in assay [9] and 67.9 nM in assay [10]. The TGI in assay [1] was 0.292 µM; in assay [2], 2.95 µM; in assay [3], above 65.8 µM; in assay [4] it was 99.2 µM; in assay [5], 0.178 µM; in [6], above 100 µM. Further, the TGI in [7], in assay [8] and in assay [10] was above 100 µM each time.

For `CC(C)(Oc1ccc(-c2cccc3ccccc23)cc1)C(=O)O`, the TGI in assay [1], in assay [2], in assay [3], in assay [4], in assay [5] and in [6] was above 100 µM in each case. In addition, the TGI in assay [7], in assay [8], in assay [9] and in assay [10] was above 100 µM in each case.

With `COc1cccc(C2CC(=O)Nc3c2c(C)nn3-c2nc3ccccc3[nH]2)c1OC` (centres undefined), the GI50 was 8680 nM in assay [1]; 5520 nM in [2]; 3830 nM in [3]; 3.36 µM in [4]; 2760 nM in assay [5]; 6370 nM in [6]. Further, the GI50 in assay [7] is 4440 nM; in assay [8], 11800 nM; in [9] it was 3350 nM; in [10], 4070 nM. Besides, the TGI in assay [1] was above 89.4 µM; in [2], 42.2 µM; in [3], 13 µM; in [4], 15.9 µM; in assay [5], 9.38 µM; in assay [6], 32.7 µM. In addition, the TGI in assay [7] is 60.5 µM; in [8] it was above 100 µM; in [9], 23.6 µM; in assay [10] it was above 100 µM.

On to `Cc1cc(N2CCC(N3CCCC3)CC2)nc(/N=C(\N)Nc2ccc(Cl)c(Cl)c2)n1`, for which the GI50 was 1750 nM in assay [1]; 2440 nM in assay [2]; 1880 nM in assay [3]; 1.79 µM in assay [4]; 1720 nM in [5]; 2110 nM in assay [6]. Moreover, the GI50 is 2650 nM in assay [7], 1770 nM in assay [8], 1440 nM in assay [9] and 2140 nM in assay [10]. Besides, the TGI was determined as 3.44 µM in assay [1]; 6.37 µM in [2]; 3.49 µM in assay [3]; 3.69 µM in [4]; 3.54 µM in assay [5]; 3.85 µM in assay [6]. Further, the TGI in assay [7] was found to be 8.26 µM; in assay [8], 3.79 µM; in assay [9] it was 2.85 µM; in [10], 5.63 µM.

As to `CC[C@H](C)[C@H](NC(=O)C12C3C4C1C1C2C3C41NC)C(=O)N(C)[C@H](C[C@@H](OC(C)=O)c1nc(C(=O)N[C@@H](Cc2ccccc2)C[C@H](C)C(=O)OC)cs1)C(C)C` (some centres undefined), the GI50 in assay [1] is 446 nM; in [2], 214 nM; in [3], 698 nM; in assay [4], above 7.85 µM; in assay [5] it was 546 nM; in assay [6] it was 223 nM. For the same molecule, the GI50 was 645 nM in [7], above 7570 nM in assay [8], 4160 nM in assay [9] and 701 nM in [10]. The TGI in assay [1] is above 14.3 µM; in assay [2] it was 3.51 µM; in assay [3], above 14.3 µM; in assay [4] it was above 14.3 µM; in assay [5] it was above 6.08 µM; in assay [6] it was above 14.3 µM. In addition, the TGI in [7], in assay [8], in assay [9] and in assay [10] was above 14.3 µM throughout.

For the molecule `CC1(C)CC(O)CC(C)(C)N1O`, the TGI in assay [1], in assay [2], in assay [3], in [4], in assay [5] and in [6] was above 100 µM throughout. Besides, the TGI in assay [7], in assay [8], in assay [9] and in [10] was above 100 µM each time. Besides, in [4], the GI50 was above 100 µM.

As to `Cn1cc(-c2cc(-c3cn(C)c4ccccc34)[nH]n2)c2ccccc21`, the GI50 in assay [1] is 15600 nM; in assay [2], 15900 nM; in assay [3], 31600 nM; in assay [4] it was 19.8 µM; in assay [5], 16200 nM; in [6] it was 57500 nM. Also, the GI50 was 8110 nM in assay [7], above 100000 nM in [8], 37600 nM in assay [9] and 27000 nM in assay [10]. The TGI in assay [1] was above 100 µM; in assay [2], 61.7 µM; in assay [3] it was above 100 µM; in assay [4] it was 99 µM; in assay [5] it was 44.3 µM; in assay [6], above 100 µM. For the same molecule, the TGI in assay [7], in assay [8], in assay [9] and in assay [10] was above 100 µM throughout.

With `O=c1[nH]c2cc(Cl)ccc2nc1/C(=N\Nc1ccccc1)C(O)c1ccc2c(c1)OCO2` (centres undefined), the TGI in [1], in [2], in assay [3], in assay [4], in assay [5] and in [6] was above 100 µM each time. Moreover, the TGI in assay [7], in [8], in assay [9] and in assay [10] was above 100 µM each time.

For the molecule `COC(=O)[C@@]12OC[C@]34[C@H]([C@@H](O)[C@@H]1O)[C@@]1(C)CC(=O)C(O)=C(C)[C@@H]1C[C@H]3OC(=O)[C@H](OC(=O)/C=C(\C)C(C)C)[C@@H]24`, the GI50 in [1] is 20 nM; in assay [2], 26.2 nM; in [6], 5.17 nM; in assay [7], 20 nM; in assay [10], 4.64 nM. Further, the TGI is 0.0451 µM and 0.0293 µM in assay [1]; 0.06 µM and 0.0156 µM and 0.0214 µM in assay [2]; 0.0254 µM and 0.175 µM in assay [3]; 0.00771 µM and 0.0236 µM in [4]; 0.00611 µM and 0.0234 µM in assay [5]; 0.0195 µM and 0.0303 µM in assay [6]. Besides, the TGI in assay [7] was 0.0512 µM and 0.0128 µM and 0.028 µM; in assay [9], 0.0834 µM and 0.142 µM and 0.405 µM; in [10] it was 0.0214 µM and 0.145 µM.
